System: Pseudomonas aeruginosa PAO1 MB9798 (efflux+, IMP-1)
Conditions: ratio MITC95 PA 9798/MITC95 PA 9799; imipenem at 2 μg/mL
How it was run: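 Isogenic PAO1 pair (efflux+ MB9798, efflux− MB9799, both IMP-1) tested by microbroth MIC with fixed imipenem and/or ceftazidime, usually at CLSI breakpoint, plus fixed class A/C inhibitor against AmpC. MBL inhibitor titrated; concentration restoring susceptibility recorded and fold difference between strains taken as efflux extent.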

**Q.** With `NCCNC(=O)c1cccc(-c2ccc(S(=O)(=O)NCCN)c(S(N)(=O)=O)c2-c2nn[nH]n2)c1N` [Example 204, 2-amino-N-(2-aminoethyl)-4′-(N-(2-aminoethyl)sulfamoyl)-5′-sulfamoyl-6′-(2H-tetrazol-5-yl)biphenyl-3-carboxamide] as the compound, how does the Efflux ratio read?
**A.** 1.00

**Q.** With `CS(=O)(=O)Nc1ccc(-c2ccc(S(=O)(=O)N[C@@H]3CCNC3)c(S(N)(=O)=O)c2-c2nnn[nH]2)cc1` [Example 136, (R)-4′-(methylsulfonamido)-N4-(pyrrolidin-3-yl)-2-(1H-tetrazol-5-yl)-[1,1′-biphenyl]-3,4-disulfonamide] as the compound, how does the Efflux ratio read?
**A.** 2.00

**Q.** How did the Efflux ratio turn out when `NS(=O)(=O)c1c(S(=O)(=O)N[C@@H]2CCNC2)ccc(-c2cccc3cn[nH]c23)c1-c1nnn[nH]1` [Example 139, (R)-4-(1H-indazol-7-yl)-N1-(pyrrolidin-3-yl)-3-(1H-tetrazol-5-yl)benzene-1,2-disulfonamide] was run?
**A.** 1.00

**Q.** `NCC(CN)NS(=O)(=O)c1ccc(-c2cccc(-c3nc[nH]n3)c2)c(-c2nn[nH]n2)c1S(N)(=O)=O` [Example 227, N4-(1,3-diaminopropan-2-yl)-2-(2H-tetrazol-5-yl)-3′-(1H-1,2,4-triazol-3-yl)-[1,1′-biphenyl]-3,4-disulfonamide] was tested. Which Efflux ratio did it give?
**A.** 1.00

**Q.** With `CC1(CN)CN(S(=O)(=O)c2ccc(-c3cccc4sc(N)nc34)c(-c3nnn[nH]3)c2S(N)(=O)=O)C1.O=C(O)C(F)(F)F` [Example 101, (1-((4-(2-aminobenzo[d]thiazol-4-yl)-2-sulfamoyl-3-(1H-tetrazol-5-yl)phenyl)sulfonyl)-3-methylazetidin-3-yl)methanaminium 2,2,2-trifluoroacetate] as the compound, how does the Efflux ratio read?
**A.** 1.00

**Q.** For `C[C@H](N)CNS(=O)(=O)c1ccc(-c2cccc3sc(N)nc23)c(-c2nnn[nH]2)c1S(N)(=O)=O.O=CO` [Example 127, (S)-4-(2-aminobenzo[d]thiazol-4-yl)-N1-(2-aminopropyl)-3-(1H-tetrazol-5-yl)benzene-1,2-disulfonamide, formate salt], which Efflux ratio is on record?
**A.** 1.00

**Q.** With `CNc1ccc(-c2ccc(S(=O)(=O)NCCN)c(S(N)(=O)=O)c2-c2nn[nH]n2)cn1` [Example 243, N^1-(2-aminoethyl)-4-(6-(methylamino)pyridin-3-yl)-3-(2H-tetrazol-5-yl)benzene-1,2-disulfonamide] as the compound, how does the Efflux ratio read?
**A.** 1.00

**Q.** For `Nc1nc2c(-c3ccc(S(=O)(=O)NC[C@H](N)CO)c(S(N)(=O)=O)c3-c3nn[nH]n3)cccc2[nH]1` [Example 191, 4-(2-amino-1H-benzo[d]imidazol-4-yl)-N^1—((S)-2-amino-3-hydroxypropyl)-3-(2H-tetrazol-5-yl)benzene-1,2-disulfonamide], which Efflux ratio is on record?
**A.** 1.00

**Q.** With `Nc1nc2c(-c3ccc(S(=O)(=O)N[C@H]4CCNC4)c(S(N)(=O)=O)c3-c3nnn[nH]3)cccc2s1` [Example 60, 4-(2-amino-1,3-benzothiazol-4-yl)-N1-[(3S)-pyrrolidin-3-yl]-3-(1H-tetrazol-5-yl)benzene-1,2-disulfonamide] as the compound, how does the Efflux ratio read?
**A.** 0.50

**Q.** With `CN1CCC(CNS(=O)(=O)c2ccc(-c3cccc4sc(N)nc34)c(-c3nnn[nH]3)c2S(N)(=O)=O)C1.O=C(O)C(F)(F)F` (stereo not shown) [Example 102, 3-((4-(2-aminobenzo[d]thiazol-4-yl)-2-sulfamoyl-3-(1H-tetrazol-5-yl)phenylsulfonamido)methyl)-1-methylpyrrolidin-1-ium 2,2,2-trifluoroacetate] as the compound, how does the Efflux ratio read?
**A.** 0.50

**Q.** How did the Efflux ratio turn out when `Nc1nc2c(-c3ccc(S(=O)(=O)NC4CNC4)c(S(N)(=O)=O)c3-c3nn[nH]n3)cccc2[nH]1` [Example 252, 4-(2-amino-1H-benzo[d]imidazol-4-yl)-N1-(azetidin-3-yl)-3-(2H-tetrazol-5-yl)benzene-1,2-disulfonamide] was run?
**A.** 0.68

**Q.** With `CN1CCCC(NS(=O)(=O)c2ccc(-c3cccc4sc(N)nc34)c(-c3nnn[nH]3)c2S(N)(=O)=O)C1` (stereo not shown) [Example 18, 4-(2-amino-1,3-benzothiazol-4-yl)-N1-(1-methylpiperidin-3-yl)-3-(1H-tetrazol-5-yl)benzene-1,2-disulfonamide] as the compound, how does the Efflux ratio read?
**A.** 1.00

**Q.** `Nc1nc2c(-c3ccc(S(=O)(=O)N4CC5CC4CS5(=O)=O)c(S(N)(=O)=O)c3-c3nnn[nH]3)cccc2s1` (stereo not shown) [Example 40, 3-(2-amino-1,3-benzothiazol-4-yl)-6-[(2,2-dioxido-2-thia-5-azabicyclo[2.2.1]hept-5-yl)sulfonyl]-2-(1H-tetrazol-5-yl)benzenesulfonamide] was tested. Which Efflux ratio did it give?
**A.** 16.00

**Q.** `C[C@H](CN)NS(=O)(=O)c1ccc(-c2cccc3[nH]c(N)nc23)c(-c2nn[nH]n2)c1S(N)(=O)=O` [Example 187, 4-(2-amino-1H-benzo[d]imidazol-4-yl)-N^1—((R)-1-aminopropan-2-yl)-3-(2H-tetrazol-5-yl)benzene-1,2-disulfonamide] was tested. Which Efflux ratio did it give?
**A.** 0.50

**Q.** How did the Efflux ratio turn out when `NC(=O)[C@H](N)CNS(=O)(=O)c1ccc(-c2cccc3[nH]c(N)nc23)c(-c2nn[nH]n2)c1S(N)(=O)=O` [Example 188, (2R)-2-amino-3-(4-(2-amino-1H-benzo[d]imidazol-4-yl)-2-sulfamoyl-3-(2H-tetrazol-5-yl)phenylsulfonamido)propanamide] was run?
**A.** 0.50

**Q.** Which Efflux ratio does the source give for `NS(=O)(=O)c1c(S(=O)(=O)N2CCNCC2)ccc(-c2cccc3cn[nH]c23)c1-c1nnn[nH]1` [Example 160, 3-(1H-indazol-7-yl)-6-(piperazin-1-ylsulfonyl)-2-(1H-tetrazol-5-yl)benzenesulfonamide] here?
**A.** 4.00

**Q.** How did the Efflux ratio turn out when `CN1CCN(S(=O)(=O)c2ccc(-c3cccc4sc(N)nc34)c(-c3nnn[nH]3)c2S(N)(=O)=O)CC1` [Example 27, 3-(2-amino-1,3-benzothiazol-4-yl)-6-[(4-methylpiperazin-1-yl)sulfonyl]-2-(1H-tetrazol-5-yl)benzenesulfonamide] was run?
**A.** 2.00

**Q.** How did the Efflux ratio turn out when `CN(C)CCNS(=O)(=O)c1ccc(-c2cccc3sc(N)nc23)c(-c2nnn[nH]2)c1S(N)(=O)=O` [Example 22, 4-(2-amino-1,3-benzothiazol-4-yl)-N^1-[2-(dimethylamino)ethyl]-3-(1H-tetrazol-5-yl)benzene-1,2-disulfonamide] was run?
**A.** 1.00

**Q.** `CN(C)CCCN(C)S(=O)(=O)c1ccc(-c2cccc3sc(N)nc23)c(-c2nnn[nH]2)c1S(N)(=O)=O` [Example 52, 4-(2-amino-1,3-benzothiazol-4-yl)-N1-[3-(dimethylamino)propyl]-N~1~-methyl-3-(1H-tetrazol-5-yl)benzene-1,2-disulfonamide] was tested. Which Efflux ratio did it give?
**A.** 2.00

**Q.** With `Nc1nc2c(-c3ccc(S(=O)(=O)NC4CCS(=O)(=O)CC4)c(S(N)(=O)=O)c3-c3nnn[nH]3)cccc2s1` [Example 14, 4-(2-amino-1,3-benzothiazol-4-yl)-N1-(1,1-dioxidotetrahydro-2H-thiopyran-4-yl)-3-(1H-tetrazol-5-yl)benzene-1,2-disulfonamide] as the compound, how does the Efflux ratio read?
**A.** 1.00

**Q.** Which Efflux ratio does the source give for `NS(=O)(=O)c1c(S(=O)(=O)N[C@@H]2CCNC2)ccc(-c2cccc3nc(O)[nH]c23)c1-c1nnn[nH]1` [Example 130, (R)-4-(2-hydroxy-1H-benzo[d]imidazol-7-yl)-N1-(pyrrolidin-3-yl)-3-(1H-tetrazol-5-yl)benzene-1,2-disulfonamide] here?
**A.** 0.50

**Q.** With `Nc1ncccc1-c1ccc(S(=O)(=O)N[C@H]2C[C@@H]2N)c(S(N)(=O)=O)c1-c1nn[nH]n1` [Example 216, N1-((1S)-2-aminocyclopropyl)-4-(2-aminopyridin-3-yl)-3-(2H-tetrazol-5-yl)benzene-1,2-disulfonamide] as the compound, how does the Efflux ratio read?
**A.** 4.00

Source: US10544130B2, “Metallo-beta-lactamase inhibitors” (priority 2015, dated 2020)
